Test results from patent publication US7541368B2, “Pyrazoles as inhibitors of tumor necrosis factor” (Aventis Pharmaceuticals Inc., priority 2003, dated 2009).

System: TNF-alpha release in THP-1 cells
Test: LPS-induced TNF-alpha release in THP-1 cells
Type: cell-based
Conditions: Homo sapiens, THP-1, LPS-stimulated THP-1 cells; read-out: 50% inhibition in the LPS-induced TNF-alpha release in THP-1 cells assay at concentrations within the range
Procedure: The effects of compounds on TNF-alpha production by lipopolysaccharide (LPS)-stimulated […] monocytes were examined as follows.
Undifferentiated THP-1 cells were maintained in RPMI 1640 with Glutamax I containing β-mercaptoethananol (50 μM) and foetal calf serum (FCS-10%) at densities of about 1×10^6 cells per ml. For incubations without and with test reagents, cells were seeded at the indicated densities under serum-deprived (1% FCS) conditions. Compounds were dissolved in dimethylsulfoxide (DMSO-100%) and incubated with the cells to give a fmal DMSO concentration of 0.3%. Control and untreated cell samples were incubated with DMSO (0.3%).
THP-1 cells (1×10 ^6 cells/ml, total volume 150 μl) in culture medium were incubated for 1 hour (5% CO2, 37° C.) with fresh medium containing compounds or vehicle (0.1-0.3% dimethylsulfoxide). LPS (20 μg/ml) was then added to the cells and the incubation continued for a fuirther 18 hours. Cell supernatants were removed into 96 well plates for storage at −20° C.
TNF-alpha concentrations in cell supernatants were quantified by sandwich ELISA. Briefly, ELISA plates were coated overnight with 2 μg/ml of mouse anti-human TNF-alpha antibody in bicarbonate buffer (pH 9.9). After washing the wells with wash buffer (0.05% (v/v) Tween in PBS)and blocking unoccupied sites (1% BSA in wash buffer), monocyte supernatant samples or human recombinant TNF-alpha standards were added into the corresponding wells of the ELISA plate at 1:10 dilution. Biotinylated rabbit polyclonal anti-human TNF-alpha antibody (3 μg/ml) was used as the second antibody and streptavidin-horseradish peroxidase was used as the detection antibody. The peroxidase substrate is 3,3′,5,5′-tetramethylbenzidine (TMB) in the presence of hydrogen peroxide.
TNFα concentrations in supernatants from control and LPS-stimulated monocyte incubations were calculated by interpolation from a standard (log/log) curve (0.125-16 ng/ml) fitted by Excel Fit using the Activity Base software. Compounds were tested within the concentration range of 1×10^−9M to 1×10^−6M.

IC50, 10 to 500 nM:
CO[C@H](C(=O)N1CCC(Cc2cccc(NC(=O)Nc3cc(C(C)(C)C)nn3-c3ccc(C)cc3)c2)CC1)c1ccccc1 [Compound A4, 1-(5-tert-Butyl-2-p-tolyl-2H-pyrazol-3-yl)-3-{3-[1-((S)-2-methoxy-2-phenyl-acetyl)-piperidin-4-ylmethyl]-phenyl}-urea]
Cc1ccc(-n2nc(C(C)(C)C)cc2NC(=O)Nc2cccc(CC3CCN(C(=O)c4csnn4)CC3)c2)cc1 [Compound A6, 1-(5-tert-Butyl-2-p-tolyl-2H-pyrazol-3-yl)-3-{3-[1-([1,2,3]thiadiazole-4-carbonyl)-piperidin-4-ylmethyl]-phenyl}-urea]
Cc1ccc(-n2nc(C(C)(C)C)cc2NC(=O)Nc2cccc(CC3CCN(C(=O)c4ccc5cnccc5n4)CC3)c2)cc1 [Compound A7, 1-(5-tert-Butyl-2-p-tolyl-2H-pyrazol-3-yl)-3-{3-[1-([1,6]naphthyridine-2-carbonyl)-piperidin-4-ylmethyl]-phenyl}-urea]
Cc1ccc(-n2nc(C(C)(C)C)cc2NC(=O)Nc2cccc(CC3CCN(C(=O)c4ccc5cccnc5n4)CC3)c2)cc1 [Compound A8, 1-(5-tert-Butyl-2-p-tolyl-2H-pyrazol-3-yl)-3-{3-[1-([1,8]naphthyridine-2-carbonyl)-piperidin-4-ylmethyl]-phenyl}-urea]
Cc1ccc(-n2nc(C(C)(C)C)cc2NC(=O)Nc2cccc(CC3CCN(C(=O)c4nccc5ccccc45)CC3)c2)cc1 [Compound A13, 1-(5-tert-Butyl-2-p-tolyl-2H-pyrazol-3-yl)-3-{3-[1-(isoquinoline-1-carbonyl)-piperidin-4-ylmethyl]-phenyl}-urea]
COc1cccc(C(=O)N2CCC(Cc3cccc(NC(=O)Nc4cc(C(C)(C)C)nn4-c4ccc(C)cc4)c3)CC2)c1OC [Compound A21, 1-(5-tert-Butyl-2-p-tolyl-2H-pyrazol-3-yl)-3-{3-[1-(2,3-dimethoxy-benzoyl)-piperidin-4-ylmethyl]-phenyl}-urea]
COc1cccc(CC(=O)N2CCC(Cc3cccc(NC(=O)Nc4cc(C(C)(C)C)nn4-c4ccc(C)cc4)c3)CC2)c1OC [Compound A22, 1-(5-tert-Butyl-2-p-tolyl-2H-pyrazol-3-yl)-3-(3-{1-[2-(2,3-dimethoxy-phenyl)-acetyl]-piperidin-4-ylmethyl}-phenyl)-urea]
COc1cc(OC)c(C(=O)N2CCC(Cc3cccc(NC(=O)Nc4cc(C(C)(C)C)nn4-c4ccc(C)cc4)c3)CC2)c(OC)c1 [Compound A24, 1-(5-tert-Butyl-2-p-tolyl-2H-pyrazol-3-yl)-3-{3-[1-(2,4,6-trimethoxy-benzoyl)-piperidin-4-ylmethyl]-phenyl}-urea]
Cc1ccc(-n2nc(C(C)(C)C)cc2NC(=O)Nc2cccc(CC3CCN(C(=O)Cc4ccc(F)cc4F)CC3)c2)cc1 [Compound A26, 1-(5-tert-Butyl-2-p-tolyl-2H-pyrazol-3-yl)-3-(3-{1-[2-(2,4-difluoro-phenyl)-acetyl]-piperidin-4-ylmethyl}-phenyl)-urea]
Cc1ccc(-n2nc(C(C)(C)C)cc2NC(=O)Nc2cccc(CC3CCN(C(=O)c4cc(C)oc4C)CC3)c2)cc1 [Compound A29, 1-(5-tert-Butyl-2-p-tolyl-2H-pyrazol-3-yl)-3-{3-[1-(2,5-dimethyl-furan-3-carbonyl)-piperidin-4-ylmethyl]-phenyl}-urea]
Cc1ccc(-n2nc(C(C)(C)C)cc2NC(=O)Nc2cccc(CC3CCN(C(=O)c4cccnc4N)CC3)c2)cc1 [Compound A39, 1-{3-[1-(2-Amino-pyridine-3-carbonyl)-piperidin-4-ylmethyl]-phenyl}-3-(5-tert-butyl-2-p-tolyl-2H-pyrazol-3-yl)-urea]
Cc1ccc(-n2nc(C(C)(C)C)cc2NC(=O)Nc2cccc(CC3CCN(C(=O)c4ccc(S(C)(=O)=O)cc4Cl)CC3)c2)cc1 [Compound A40, 1-(5-tert-Butyl-2-p-tolyl-2H-pyrazol-3-yl)-3-{3-[1-(2-chloro-4-methanesulfonyl-benzoyl)-piperidin-4-ylmethyl]-phenyl}-urea]
Cc1ccc(-n2nc(C(C)(C)C)cc2NC(=O)Nc2cccc(CC3CCN(C(=O)c4ccco4)CC3)c2)cc1 [Compound A45, 1-(5-tert-Butyl-2-p-tolyl-2H-pyrazol-3-yl)-3-{3-[1-(furan-2-carbonyl)-piperidin-4-ylmethyl]-phenyl}-urea]
COc1ccccc1CC(=O)N1CCC(Cc2cccc(NC(=O)Nc3cc(C(C)(C)C)nn3-c3ccc(C)cc3)c2)CC1 [Compound A50, 1-(5-tert-Butyl-2-p-tolyl-2H-pyrazol-3-yl)-3-(3-{1-[2-(2-methoxy-phenyl)-acetyl]-piperidin-4-ylmethyl}-phenyl)-urea]
Cc1ccc(-n2nc(C(C)(C)C)cc2NC(=O)Nc2cccc(CC3CCN(C(=O)c4ccoc4C)CC3)c2)cc1 [Compound A52, 1-(5-tert-Butyl-2-p-tolyl-2H-pyrazol-3-yl)-3-{3-[1-(2-methyl-furan-3-carbonyl)-piperidin-4-ylmethyl]-phenyl}-urea]
Cc1ccc(-n2nc(C(C)(C)C)cc2NC(=O)Nc2cccc(CC3CCN(C(=O)c4cnccn4)CC3)c2)cc1 [Compound A64, 1-(5-tert-Butyl-2-p-tolyl-2H-pyrazol-3-yl)-3-{3-[1-(pyrazine-2-carbonyl)-piperidin-4-ylmethyl]-phenyl}-urea]
Cc1ccc(-n2nc(C(C)(C)C)cc2NC(=O)Nc2cccc(CC3CCN(C(=O)C4CCCO4)CC3)c2)cc1 (stereo not shown) [Compound A66, 1-(5-tert-Butyl-2-p-tolyl-2H-pyrazol-3-yl)-3-{3-[1-(tetrahydro-furan-2-carbonyl)-piperidin-4ylmethyl]-phenyl}-urea]
COc1ccc(CC(=O)N2CCC(Cc3cccc(NC(=O)Nc4cc(C(C)(C)C)nn4-c4ccc(C)cc4)c3)CC2)cc1OC [Compound A69, 1-(5-tert-Butyl-2-p-tolyl-2H-pyrazol-3-yl)-3-(3-{1-[2-(3,4-dimethoxy-phenyl)-acetyl]-piperidin-4-ylmethyl}-phenyl)-urea]
Cc1ccc(-n2nc(C(C)(C)C)cc2NC(=O)Nc2cccc(CC3CCN(C(=O)Cc4ccc5c(c4)OCO5)CC3)c2)cc1 [Compound A70, 1-{3-[1-(2-Benzo[1,3]dioxol-5-yl-acetyl)-piperidin-4-ylmethyl]-phenyl}-3-(5-tert-butyl-2-p-tolyl-2H-pyrazol-3-yl)-urea]
COc1cc(OC)cc(C(=O)N2CCC(Cc3cccc(NC(=O)Nc4cc(C(C)(C)C)nn4-c4ccc(C)cc4)c3)CC2)c1 [Compound A73, 1-(5-tert-Butyl-2-p-tolyl-2H-pyrazol-3-yl)-3-{3-[1-(3,5-dimethoxy-benzoyl)-piperidin-4-ylmethyl]-phenyl}-urea]
Cc1ccc(-n2nc(C(C)(C)C)cc2NC(=O)Nc2cccc(CC3CCN(C(=O)c4cccc(C(C)C#N)c4)CC3)c2)cc1 (stereo not shown) [Compound A79, 1-(5-tert-Butyl-2-p-tolyl-2H-pyrazol-3-yl)-3-(3-{1-[3-(cyano-methyl-methyl)-benzoyl]-piperidin-4-ylmethyl}-phenyl)-urea]
Cc1ccc(-n2nc(C(C)(C)C)cc2NC(=O)Nc2cccc(CC3CCN(C(=O)CCc4ccco4)CC3)c2)cc1 [Compound A81, 1-(5-tert-Butyl-2-p-tolyl-2H-pyrazol-3-yl)-3-{3-[1-(3-furan-2-yl-propionyl)-piperidin-4-ylmethyl]-phenyl}-urea]
